Measured values as given in US10975068B2, “6-aminopyridin-3-yl thiazoles as modulators of RORγT” (Janssen Pharmaceutica NV, priority 2016, dated 2021).
Where two headings read alike, the source gives them in different places.

Target: full-length human RORγt (Homo sapiens (Human), UniProt P51449)
Assay: RORγt (full-length human) reporter assay, Conditions B or C
Type: cell-based
Conditions: for inhibition at 3 µM: at 3 μM compound concentration, read-out: RORγt (FL) Reporter Assay B or C, % inhibition; for RORγt (FL) Reporter Assay B or C, % inhibition (value marked *): marked *: footnote not given; for inhibition at 6 µM: read-out: RORγt (FL) Reporter Assay B or C, % inhibition @ 6 μM, Conditions B or C
Summary of the method: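 Readout is dual luciferase: firefly (GAL4-driven) normalized to DMSO-only and saturating-reference controls, then to CMV-Renilla. Full-length human RORγt fused to GAL4-DBD was transiently expressed in HEK293T; compound exposure ran overnight (16-20 h) starting 4-6 h after transfection, final FBS 1.3%, DMSO 0.1%.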

[1] = read-out: RORγt (FL) Reporter Assay B or C, IC50
[2] = Conditions B or C, read-out: RORγt (FL) Reporter Assay B or C, IC50

Chain of full-length human RORγt (P51449 other isoform, or with tags, fused parts or gaps): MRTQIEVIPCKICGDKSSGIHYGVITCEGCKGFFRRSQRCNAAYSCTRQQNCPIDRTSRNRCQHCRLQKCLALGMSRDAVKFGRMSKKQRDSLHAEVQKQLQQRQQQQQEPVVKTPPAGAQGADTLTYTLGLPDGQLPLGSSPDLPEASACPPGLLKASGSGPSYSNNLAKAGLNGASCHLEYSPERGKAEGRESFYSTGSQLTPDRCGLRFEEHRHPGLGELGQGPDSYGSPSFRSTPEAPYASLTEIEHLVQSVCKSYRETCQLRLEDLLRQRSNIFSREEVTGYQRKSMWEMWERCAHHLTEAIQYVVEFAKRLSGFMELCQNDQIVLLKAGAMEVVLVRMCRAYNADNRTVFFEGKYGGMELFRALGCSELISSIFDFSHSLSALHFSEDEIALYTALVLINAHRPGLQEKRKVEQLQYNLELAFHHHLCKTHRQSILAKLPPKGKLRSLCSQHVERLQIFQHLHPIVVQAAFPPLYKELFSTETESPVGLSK

Structure (SMILES)	RORγt (FL) Reporter Assay B or C, % inhibition (value marked *) (Conditions B or C)	IC50 [2] [µM]	also measured
O=C(N[C@H]1C[C@H](O)C1)c1nc(C(=O)N2C3CCC2CC3)c(-c2cnc(N[C@@H](C3CC3)C(F)(F)F)cc2C(F)F)s1 [Example 318, 4-((1s,4s)-7-Azabicyclo[2.2.1]heptane-7-carbonyl)-5-(6-(((S)-1-cyclopropyl-2,2,2-trifluoroethyl)amino)-4-(difluoromethyl)pyridin-3-yl)-N-((1r,3S)-3-hydroxycyclobutyl)thiazole-2-carboxamide]			inhibition at 3 µM: 86%; IC50 [1]: 0.028 µM
C[C@H]1CC(F)(F)CN1C(=O)c1nc(C(=O)NCC(C)(C)O)sc1-c1cnc(NCC(C)(C)C)cc1C(F)F [Example 115, (S)-4-(4,4-Difluoro-2-methylpyrrolidine-1-carbonyl)-5-(4-(difluoromethyl)-6-(neopentylamino)pyridin-3-yl)-N-(2-hydroxy-2-methylpropyl)thiazole-2-carboxamide]	115* %	0.028	
CC(C)(O)CNC(=O)c1nc(C(=O)N2C3CCC2CC3)c(-c2cnc(NC3(C)CCC3)cc2C(F)F)s1 [Example 169, 4-((1s,4s)-7-Azabicyclo[2.2[1]heptane-7-carbonyl)-5-(4-(difluoromethyl)-6-((1-methylcyclobutyl)amino)pyridine-3-yl)-N-(2-hydroxy-2-methylpropyl))thiazole-2-carboxamide]	94* %		IC50 (RORγt (FL) Reporter Assay B or C, IC50 (μM), Conditions B or C): 0.012 µM
C[C@H](NC(=O)c1nc(C(=O)N2CCC[C@@H]2C)c(-c2cnc(NC(C)(C)C)cc2C(F)(F)F)s1)C(C)(C)O [Example 336, 5-[6-(tert-Butylamino)-4-(trifluoromethyl)-3-pyridyl]-N-[(1S)-2-hydroxy-1,2-dimethyl-propyl]-4-[(2S)-2-methylpyrrolidine-1-carbonyl]thiazole-2-carboxamide]			inhibition at 3 µM: 108%; IC50 [1]: 0.0056 µM
C[C@H](Nc1cc(C(F)(F)F)c(-c2sc(C(=O)NCC(C)(C)O)nc2C(=O)N2C3CCC2CC3)cn1)C1CC1 [Example 51, 4-((1s,4s)-7-Azabicyclo[2.2.1]heptane-7-carbonyl)-5-(6-(((S)-1-cyclopropylethyl)amino)-4-(trifluoromethyl)pyridin-3-yl)-N-(2-hydroxy-2-methylpropyl)thiazole-2-carboxamide]	101* %	0.0048	
CC(C)(O)CNC(=O)c1nc(C(=O)N2C3CCC2CC3)c(-c2cnc(NC3(C)CCC3)cc2C(F)(F)F)s1 [Example 140, 4-((1s,4s)-7-Azabicyclo[2.2.1]heptane-7-carbonyl)-N-(2-hydroxy-2-methylpropyl)-5-(6-((1-methylcyclobutyl)amino)-4-(trifluoromethyl)pyridin-3-yl)thiazole-2-carboxamide]	89* %	0.011	
C[C@H]1CC(F)(F)CN1C(=O)c1nc(C(=O)NCC(C)(C)O)sc1-c1cnc(NC2(C)CCC2)cc1C(F)(F)F [Example 141, (S)-4-(4,4-Difluoro-2-methylpyrrolidine-1-carbonyl)-N-(2-hydroxy-2-methylpropyl)-5-(6-((1-methylcyclobutyl)amino)-4-(trifluoromethyl)pyridin-3-yl)thiazole-2-carboxamide]	100* %	0.023	
CC[C@H](Nc1cc(C(F)F)c(-c2sc(C(=O)NCC(C)(C)O)nc2C(=O)N2CC(F)(F)C[C@@H]2C)cn1)C(F)(F)F [Example 90, 4-((S)-4,4-Difluoro-2-methylpyrrolidine-1-carbonyl)-5-(4-(difluoromethyl)-6-(((S)-1,1,1-trifluorobutan-2-yl)amino)pyridin-3-yl)-N-(2-hydroxy-2-methylpropyl)thiazole-2-carboxamide]	86* %	0.11	
CC(C)(O)CNC(=O)c1nc(C(=O)N2C3CCC2CC3)c(-c2cnc(NCC(C)(C)C(F)(F)F)cc2C(F)(F)F)s1 [Example 122, 4-((1s,4s)-7-Azabicyclo[2.2.1]heptane-7-carbonyl)-N-(2-hydroxy-2-methylpropyl)-5-(6-((3,3,3-trifluoro-2,2-dimethylpropyl)amino)-4-(trifluoromethyl)pyridin-3-yl)thiazole-2-carboxamide]	102* %	0.033	
C[C@H](NC(=O)c1nc(C(=O)N2CCC[C@@H]2C)c(-c2cnc(N[C@@H](C)C(F)(F)F)cc2C(F)F)s1)C(C)(C)O [Example 199, 5-(4-(Difluoromethyl)-6-(((S)-1,1,1-trifluoropropan-2-yl)amino)pyridine-3-yl)-N—((S)-3-hydroxy-3-methylburan-2-yl)-4-((S)-2-methylpyrrolidine-1-carbonyl)thiazole-2-carboxamide]	94* %	0.12	

The next lines start with results.

RORγt (FL) Reporter Assay B or C, % inhibition (value marked *) (Conditions B or C)	IC50 [2] [µM]	Structure (SMILES)	also measured
106* %	0.076	C[C@H](Nc1cc(C(F)F)c(-c2sc(C(=O)NCC(C)(C)O)nc2C(=O)N2CCCC[C@@H]2C)cn1)C(F)(F)F [Example 144]	
	0.013	C[C@H](Nc1cc(C(F)(F)F)c(-c2sc(C(=O)NCC(C)(C)O)nc2C(=O)N2CCC[C@@H]2C)cn1)C1CC1 [Example 40, 5-(6-(((S)-1-Cyclopropylethyl)amino)-4-(trifluoromethyl)pyridin-3-yl)-N-(2-hydroxy-2-methylpropyl)-4-((S)-2-methylpyrrolidine-1-carbonyl)thiazole-2-carboxamide]	inhibition at 6 µM: 102%
106* %	0.029	CC[C@H](Nc1cc(C(F)(F)F)c(-c2sc(C(=O)NCC(C)(C)O)nc2C(=O)N2CCC[C@@H]2C)cn1)C(F)(F)F [Example 111, N-(2-Hydroxy-2-methylpropyl)-4-((S)-2-methylpyrrolidine-1-carbonyl)-5-(6-(((S)-1,1,1-trifluorobutan-2-yl)amino)-4-(trifluoromethyl)pyridin-3-yl)thiazole-2-carboxamide]	
107* %	0.023	CC[C@H](Nc1cc(C(F)(F)F)c(-c2sc(C(=O)NCC(C)(C)O)nc2C(=O)N2CCC[C@@H]2C)cn1)C1CC1 (relative stereo) [Example 128, 5-(6-(((S*)-1-Cyclopropylpropyl)amino)-4-(trifluoromethyl)pyridin-3-yl)-N-(2-hydroxy-2-methylpropyl)-4-((S)-2-methylpyrrolidine-1-carbonyl)thiazole-2-carboxamide]	
	0.015	C[C@H]1CCCN1C(=O)c1nc(C(=O)NCC(C)(C)O)sc1-c1cnc(NC2CCCC2)cc1C(F)(F)F [Example 38, (S)-5-(6-(Cyclopentylamino)-4-(trifluoromethyl)pyridin-3-yl)-N-(2-hydroxy-2-methylpropyl)-4-(2-methylpyrrolidine-1-carbonyl)thiazole-2-carboxamide]	inhibition at 6 µM: 108%
96* %	0.0054	C[C@H](Nc1cc(C(F)(F)F)c(-c2sc(C(=O)NCC(C)(C)O)nc2C(=O)N2CCCC[C@@H]2C)cn1)C(F)(F)F [Example 47, N-(2-Hydroxy-2-methylpropyl)-4-((S)-2-methylpiperidine-1-carbonyl)-5-(4-(trifluoromethyl)-6-(((S)-1,1,1-trifluoropropan-2-yl)amino)pyridin-3-yl)thiazole-2-carboxamide]	
